The test system of one data set is Male ICR mice. The data set can be described thus: Acetic acid-induced writhing assay in mice. It is filed as in vivo. The following applies: 10 mg/kg subcutaneous, 30 min before 0.6% acetic acid i.p.; writhes counted over 15 min. The text has this:
12: 525-562; Ramabadran and Bansinath (1986) Pharm. Res. 3: 263-270]. Intraperitoneal administration of dilute acetic acid solution causes a writhing behavior in mice. A writhe is defined as a contraction of the abdominal muscles accompanied by an extension of the forelimbs and elongation of the body. The number of writhes observed in the presence and absence of test compounds is counted to determine the analgesic activity of the compounds.
(§1) Male ICR mice, 20-40 grams in weight, served as experimental subjects. To determine the activity and potency of test compounds, mice were weighed and then injected with different doses of the compound solution or vehicle subcutaneously in the back of the neck and then returned to their home cages. Thirty minutes later, body temperatures were obtained using a digital rectal probe and then mice were immediately injected with 10 ml/kg of a 0.6% (v/v) acetic acid solution into the right lower quadrant of the abdomen. Mice were then placed in individual observation chambers (usually a 4000 ml beaker) with a fine layer of bedding at the bottom and the recording of the number of writhes begun immediately. The number of writhes was counted over a 15-min period starting from the time of the acetic acid injection. Raw data were analyzed using a one-way ANOVA followed by Dunnett's post-tests. For dose-response analysis, raw data were converted to % maximum possible effect (% MPE) using the formula:
% MPE=((Wc−Wv)/(0−Wv))*100
where Wc is the number of writhes in compound-treated mice and Wv is the mean number of writhes in vehicle-treated mice. The dose which elicited 50% attenuation of hypersensitivity (ED50) was determined using linear regression analysis. (Tallarida & Murray, 1987).
For orientation: In writhing tests, fewer writhes than in controls are read as antinociception.

Data set [1] can be described thus: Body temperature (rectal probe) in writhing assay mice. It is filed as in vivo. The following applies: 10 mg/kg subcutaneous; thirty minutes after dosing. As to the method:
as §1, with “formula: […]” for “formula:”

In data set [2] the target is human CB1 receptor (hCB1) (Homo sapiens, UniProt P21554). Put plainly: cAMP assay (LANCE TR-FRET) in CHO-K1 cells expressing hCB1. It is filed as cell-based. Conditions: activity on hCB1 represents inverse agonism; for Emax: CHO-K1, percent of range defined by CP55,940 (1 μM = 100%), read-out: hCB1 % Max Range; for pEC50: CHO-K1 cells stably expressing hCB1, intracellular cAMP, NKH-477 prestimulated.

The target of data set [3] is human CB2 receptor (hCB2) (Homo sapiens, UniProt P34972). The data set can be described thus: cAMP assay (LANCE TR-FRET) in CHO-K1 cells expressing hCB2. Conditions: for Emax: CHO-K1, intrinsic activity: percent maximal activation compared to full activation by CP55,940 (1 μM = 100%), read-out: hCB2 % Max Range; for pEC50: CHO-K1 cells stably expressing hCB2, intracellular cAMP, NKH-477 prestimulated, average of at least three replicates. The class given is cell-based. On the technique in general: cAMP levels reflect the balance of adenylyl cyclase and phosphodiesterase activity.

pEC50: −log10 of the molar value. Some results are limits rather than exact numbers.

Chain of human CB2 receptor (hCB2) (P34972 whole entry): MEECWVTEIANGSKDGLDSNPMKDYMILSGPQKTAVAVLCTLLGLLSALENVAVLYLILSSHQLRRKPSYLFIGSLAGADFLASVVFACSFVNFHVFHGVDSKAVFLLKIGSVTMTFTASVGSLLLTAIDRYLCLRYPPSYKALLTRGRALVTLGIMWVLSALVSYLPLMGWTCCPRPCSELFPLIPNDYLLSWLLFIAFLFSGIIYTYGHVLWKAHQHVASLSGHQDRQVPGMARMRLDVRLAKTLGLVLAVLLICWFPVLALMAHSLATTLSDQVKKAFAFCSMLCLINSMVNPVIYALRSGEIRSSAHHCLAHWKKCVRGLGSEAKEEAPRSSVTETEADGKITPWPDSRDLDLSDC
Chain of human CB1 receptor (hCB1) (P21554 whole entry): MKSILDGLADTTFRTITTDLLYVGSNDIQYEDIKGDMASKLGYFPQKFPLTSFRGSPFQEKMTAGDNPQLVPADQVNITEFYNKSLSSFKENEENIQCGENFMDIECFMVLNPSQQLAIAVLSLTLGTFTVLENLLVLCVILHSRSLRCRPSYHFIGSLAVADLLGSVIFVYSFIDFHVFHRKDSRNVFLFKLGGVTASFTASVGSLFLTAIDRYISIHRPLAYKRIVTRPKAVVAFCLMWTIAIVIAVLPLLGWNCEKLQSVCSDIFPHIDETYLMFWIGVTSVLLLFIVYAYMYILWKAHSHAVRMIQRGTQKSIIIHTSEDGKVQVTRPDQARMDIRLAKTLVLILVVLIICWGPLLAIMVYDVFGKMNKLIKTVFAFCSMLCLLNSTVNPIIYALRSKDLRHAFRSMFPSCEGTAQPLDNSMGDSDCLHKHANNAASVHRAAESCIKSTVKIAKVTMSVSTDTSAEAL

The pEC50 is the EC50 on a negative log10 scale, so that one unit is a factor of ten. For `O=S(=O)(c1ccc2c(c1)C1C3CCC(C3)C1C(c1ccccc1)N2)N1CCCCC1` (stereo not drawn) [(3b), Bridged 6-phenyl-2-(piperidin-1-ylsulfonyl)-5,6,6a,7,8,9,10,10a-octahydrophenanthridine], the “% MPE” value in the data set with Male ICR mice was 12%. In addition, the “Δ BODY TEMP. (° C.): observed reduction in body temperature” value (“Δ BODY TEMP. (° C.): observed reduction” below) in data set [1] was found to be 0.4 °C. Also, in data set [2], the Emax is below 40% and the pEC50 is below 5.00. Also, in data set [3], the Emax worked out at 101% and the pEC50 is 9.42.
Regarding `O=S(=O)(c1ccc2c(c1)C1C3CCC(C3)C1C(c1ccccc1)N2)N1CCOCC1` (stereo not drawn) [(34), Bridged 4-(6-phenyl-5,6,6a,7,8,9,10,10a-octahydrophenanthridin-2-ylsulfonyl)morpholine], in the data set on Male ICR mice, the “% MPE” value worked out at 23%. Besides, the “Δ BODY TEMP. (° C.): observed reduction” value in data set [1] came out at 0.1 °C. Besides, the Emax in data set [2] was below 40%; in data set [3], 102%. Also, the pEC50 in data set [2] is below 5.00; in data set [3] it was 9.25.
On to `CC(=O)NS(=O)(=O)c1ccc2c(c1)C1C3CCC(C3)C1C(c1ccccc1)N2` (stereo not drawn) [(46), Bridged N-(6-phenyl-5,6,6a,7,8,9,10,10a-octahydrophenanthridin-2-ylsulfonyl)acetamide], for which the “% MPE” value with Male ICR mice was 41%. The “Δ BODY TEMP. (° C.): observed reduction” value in data set [1] came out at 0.2 °C. In addition, in data set [2], the Emax is below 40% and the pEC50 was below 5.00. Also, in data set [3], the Emax was found to be 96.9% and the pEC50 was 7.44.

Source of the values: patent US20080214537A1, “BRIDGED PHENANTHRIDINES” (CARA THERAPEUTICS, INC., priority 2007, published 2008).
